This note sets out measurements from patent publication US10335409B2 (priority 2012, dated 2019).

The subject of assay [1] is genotype 1b (Con1) wild type transient HCV replicon in Huh-7-derived cells. As to the kind of experiment: Transient-transfected HCV replicon EC50, genotype 1b wild type. The format is cell-based, hepatitis C virus. The following applies: Hepatitis C virus, 72 h, transient-transfected replicon genotype 1b wild type, read-out: EC50 1B WT. Background: A replicon is a self-replicating genome or part of one, used to study replication in cells.

Assay [2] deals with genotype 1b (Con1) stable HCV replicon in Huh-7-derived cells. As to the kind of experiment: Stable subgenomic HCV replicon EC50, genotype 1b (Renilla luciferase). The format is cell-based, hepatitis C virus. The following applies: Hepatitis C virus, stable replicon genotype 1b, 72 h, read-out: EC50 1B RLUC. A digest of the protocol: (§1)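 Compounds, three-fold diluted, were applied to Huh-7-derived cells harbouring luciferase replicons (genotype 1a H77, 1b Con1, 2a JFH-1, 4a ED43, with strain-specific adaptive mutations). Seventy-two hours later, intracellular replication was gauged by Renilla luciferase activity and EC50 derived by regression.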

The subject of assay [3] is genotype 2a (JFH-1) stable HCV replicon in Huh-7-derived cells. As to the kind of experiment: Stable subgenomic HCV replicon EC50, genotype 2a (Renilla luciferase). The format is cell-based, hepatitis C virus. The following applies: Hepatitis C virus, stable replicon genotype 2a, 72 h, read-out: EC50 2A RLUC. The gist of the method: as §1
The subject of assay [4] is genotype 1b NS3/4a protease inhibitor resistant variant D168A transient HCV replicon in Huh-7-derived cells. As to the kind of experiment: Transient-transfected HCV replicon EC50, genotype 1b D168A. The format is cell-based, hepatitis C virus. The following applies: Hepatitis C virus, 72 h, read-out: EC50 1B D168A, transient-transfected replicon genotype 1b D168A resistant variant, 72 h.

Assay [5] relates to genotype 1a NS3/4a protease inhibitor resistant variant R155K transient HCV replicon in Huh-7-derived cells. As to the kind of experiment: Transient-transfected HCV replicon EC50, genotype 1a R155K. The format is cell-based, hepatitis C virus. The following applies: Hepatitis C virus, 72 h, read-out: EC50 1A R155K, transient-transfected replicon genotype 1a R155K resistant variant, 72 h.

Assay [6] deals with HCV NS3 protease domain genotype 3a (Hepatitis C virus genotype 3a, UniProt Q81258). As to the kind of experiment: Ki determination, NS3 protease genotype 3a (fluorogenic depsipeptide substrate). The format is biochemical. The following applies: 200 pM enzyme, NS4A peptide. A digest of the protocol: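 The NS3 protease domain (aa 1-181) with 20 μM NS4A peptide was used at 50 pM with 4 μM substrate (1b) or at 200 pM with 2 μM substrate (3a). Inhibitors (100 nM-5 pM) were pre-incubated 1 h at room temperature in HEPES/glycerol/DTT buffer with 10% DMSO. Steady-state rates (90-120 min) gave Ki via the Morrison equation, corrected for active enzyme and [S]/Km.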
HCV NS3 protease domain genotype 3a, sequence (Q81258 whole entry, looked up, the tested form may be a part): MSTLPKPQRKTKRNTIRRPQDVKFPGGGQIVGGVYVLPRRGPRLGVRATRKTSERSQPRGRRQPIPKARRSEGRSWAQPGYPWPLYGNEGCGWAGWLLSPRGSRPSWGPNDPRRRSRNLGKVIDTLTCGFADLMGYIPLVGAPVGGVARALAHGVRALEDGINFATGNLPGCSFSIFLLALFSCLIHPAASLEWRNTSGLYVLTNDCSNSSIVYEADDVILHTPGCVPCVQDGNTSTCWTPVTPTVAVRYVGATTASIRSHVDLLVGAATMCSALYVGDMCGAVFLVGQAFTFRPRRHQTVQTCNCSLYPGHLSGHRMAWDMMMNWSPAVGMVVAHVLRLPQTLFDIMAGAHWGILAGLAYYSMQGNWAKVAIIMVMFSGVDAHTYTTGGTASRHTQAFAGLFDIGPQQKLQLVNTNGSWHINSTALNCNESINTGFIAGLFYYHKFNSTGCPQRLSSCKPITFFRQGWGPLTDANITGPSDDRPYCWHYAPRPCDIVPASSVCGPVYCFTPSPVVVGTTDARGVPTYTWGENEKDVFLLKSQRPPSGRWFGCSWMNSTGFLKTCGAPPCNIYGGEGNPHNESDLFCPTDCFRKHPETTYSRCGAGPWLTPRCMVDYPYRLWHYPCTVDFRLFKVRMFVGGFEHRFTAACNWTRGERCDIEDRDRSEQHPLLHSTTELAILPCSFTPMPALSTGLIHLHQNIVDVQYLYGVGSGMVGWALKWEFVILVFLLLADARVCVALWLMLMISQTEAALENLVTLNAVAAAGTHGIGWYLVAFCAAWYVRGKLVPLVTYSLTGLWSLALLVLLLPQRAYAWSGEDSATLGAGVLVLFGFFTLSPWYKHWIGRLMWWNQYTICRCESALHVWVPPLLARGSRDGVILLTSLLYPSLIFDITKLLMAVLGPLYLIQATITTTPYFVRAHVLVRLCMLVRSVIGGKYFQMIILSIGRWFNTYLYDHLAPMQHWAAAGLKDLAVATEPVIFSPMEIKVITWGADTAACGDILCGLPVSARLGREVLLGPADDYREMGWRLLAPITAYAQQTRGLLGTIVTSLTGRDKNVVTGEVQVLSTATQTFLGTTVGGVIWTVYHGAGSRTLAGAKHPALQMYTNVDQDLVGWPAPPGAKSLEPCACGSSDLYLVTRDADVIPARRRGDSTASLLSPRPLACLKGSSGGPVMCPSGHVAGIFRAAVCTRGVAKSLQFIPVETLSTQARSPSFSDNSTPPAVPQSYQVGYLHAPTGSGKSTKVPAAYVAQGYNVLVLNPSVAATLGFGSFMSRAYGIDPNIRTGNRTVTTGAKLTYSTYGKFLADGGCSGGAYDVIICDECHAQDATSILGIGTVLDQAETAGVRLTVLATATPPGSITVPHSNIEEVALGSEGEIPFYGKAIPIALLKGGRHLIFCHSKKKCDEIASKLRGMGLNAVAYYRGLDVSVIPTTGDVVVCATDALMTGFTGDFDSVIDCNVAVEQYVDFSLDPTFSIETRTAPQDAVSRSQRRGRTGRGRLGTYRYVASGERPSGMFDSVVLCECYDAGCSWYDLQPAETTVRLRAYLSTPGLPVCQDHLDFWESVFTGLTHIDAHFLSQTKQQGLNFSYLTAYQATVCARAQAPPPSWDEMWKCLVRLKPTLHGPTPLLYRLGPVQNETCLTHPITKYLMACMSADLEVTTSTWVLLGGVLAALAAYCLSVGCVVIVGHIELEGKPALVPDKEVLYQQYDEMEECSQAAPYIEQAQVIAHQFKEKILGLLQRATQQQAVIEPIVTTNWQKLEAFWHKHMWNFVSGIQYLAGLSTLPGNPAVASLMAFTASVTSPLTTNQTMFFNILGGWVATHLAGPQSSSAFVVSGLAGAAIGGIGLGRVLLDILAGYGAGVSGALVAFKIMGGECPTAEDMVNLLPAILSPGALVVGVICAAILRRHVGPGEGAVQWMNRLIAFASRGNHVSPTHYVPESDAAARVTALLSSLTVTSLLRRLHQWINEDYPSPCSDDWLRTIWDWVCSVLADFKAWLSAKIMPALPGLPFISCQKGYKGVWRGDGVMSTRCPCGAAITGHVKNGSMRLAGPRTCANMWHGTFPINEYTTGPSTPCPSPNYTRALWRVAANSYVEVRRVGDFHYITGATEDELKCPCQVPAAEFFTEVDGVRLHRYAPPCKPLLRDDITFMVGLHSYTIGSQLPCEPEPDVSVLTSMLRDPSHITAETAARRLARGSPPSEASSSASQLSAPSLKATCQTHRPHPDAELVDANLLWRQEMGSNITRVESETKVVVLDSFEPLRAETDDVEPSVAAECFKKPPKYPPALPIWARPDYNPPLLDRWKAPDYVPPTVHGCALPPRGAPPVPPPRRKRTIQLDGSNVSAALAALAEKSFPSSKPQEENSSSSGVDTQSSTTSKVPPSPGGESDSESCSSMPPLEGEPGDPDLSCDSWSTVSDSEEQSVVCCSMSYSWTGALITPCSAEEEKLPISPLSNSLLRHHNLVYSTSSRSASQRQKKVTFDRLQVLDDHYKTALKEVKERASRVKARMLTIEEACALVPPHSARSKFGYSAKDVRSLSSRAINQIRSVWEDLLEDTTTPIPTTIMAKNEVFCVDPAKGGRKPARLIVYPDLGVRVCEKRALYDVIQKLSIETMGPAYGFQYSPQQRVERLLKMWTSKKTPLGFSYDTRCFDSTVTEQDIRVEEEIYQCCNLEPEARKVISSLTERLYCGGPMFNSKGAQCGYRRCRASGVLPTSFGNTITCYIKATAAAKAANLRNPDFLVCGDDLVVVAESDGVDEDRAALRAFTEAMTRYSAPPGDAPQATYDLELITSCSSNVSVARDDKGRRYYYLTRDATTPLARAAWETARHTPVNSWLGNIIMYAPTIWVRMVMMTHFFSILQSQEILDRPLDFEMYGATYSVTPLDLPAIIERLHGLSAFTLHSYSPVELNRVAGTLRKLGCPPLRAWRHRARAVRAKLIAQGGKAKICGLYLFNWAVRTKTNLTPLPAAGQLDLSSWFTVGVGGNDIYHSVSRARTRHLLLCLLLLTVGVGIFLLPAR

The test system of assay [7] is genotype 4a (ED43) stable HCV replicon in Huh-7-derived cells. As to the kind of experiment: Stable subgenomic HCV replicon EC50, genotype 4a (Renilla luciferase). The format is cell-based, hepatitis C virus. The following applies: Hepatitis C virus, 72 h, read-out: EC50 4A RLUC. The gist of the method: as §1
Assay [8] has as its system genotype 1a (H77) wild type transient HCV replicon in Huh-7-derived cells. The assay can be described thus: Transient-transfected HCV replicon EC50, genotype 1a wild type. The format is cell-based, hepatitis C virus. The following applies: Hepatitis C virus, 72 h, transient-transfected replicon genotype 1a wild type, read-out: EC50 1A WT.
Assay [9] has as its target HCV NS3 protease domain genotype 1b (Hepatitis C virus genotype 1b (isolate Con1), UniProt Q9WMX2, E1202G). As to the kind of experiment: Ki determination, NS3 protease genotype 1b (fluorogenic depsipeptide substrate). The format is biochemical. The following applies: 50 pM enzyme, NS4A peptide. How it is done: Purified NS3 protease domain (amino acids 1-181) of the genotype 1b and 3a virus were generated as above.
Reactions were run at room temperature in buffer consisting of 50 mM HEPES, 40% glycerol, 0.05% Triton X-100, 10 mM DTT, and 10% DMSO. The final assay solutions contained 50 pM NS3 genotype 1 b protease or 200 pM genotype 3a protease, 20 μM NS4A peptide, and 4 μM substrate (genotype 1b) or 2 μM substrate (genotype 3a). Inhibitor concentrations varied from 100 nM to 5 pM in 3-fold dilutions, and no-inhibitor controls were included.
Compound dilutions were made in DMSO at 20× final concentration. Reaction mixtures were prepared in 96-well assay plates. A solution of enzyme and NS4A peptide in assay buffer (25 μL volume with both reagents at 4× final concentration) was mixed with 45 μL assay buffer and 5 μL of either inhibitor or DMSO, and pre-incubated at room temperature for 1 hour. The reaction was started by addition of 25 μL substrate solution at 4× final concentration. Plates were mixed vigorously for 5-10 seconds and reactions were allowed to proceed for 90 minutes, fluorescence was measured every 30 s between 90 and 120 minutes reaction time using a Tecan InfiniTe M1000 or PerkinElmer Envision multimode plate reader with an excitation wavelength of 340 nm and an emission wavelength of 490 nm.
To determine the Ki, rates were plotted as a function of inhibitor concentration, and the data were fit with equation 1 (Morrison, J. F., Biochimica et Biophysica Acta 1969, 185, 269-286) to calculate Ki^app using GraphPad Prism 5. […] Ki was calculated from Ki^app/(1+[[S]/Km]).

The test system of assay [10] is genotype 3a (S52) stable HCV replicon in Huh-7-derived cells. As to the kind of experiment: Stable subgenomic HCV replicon EC50, genotype 3a (Renilla luciferase). The following applies: Hepatitis C virus, 72 h, read-out: EC50 3A RLUC. The format is cell-based, hepatitis C virus.
Assay [11] has as its system genotype 1a (H77) stable HCV replicon in Huh-7-derived cells. The assay can be described thus: Stable subgenomic HCV replicon EC50, genotype 1a (Renilla luciferase). The format is cell-based, hepatitis C virus. The following applies: Hepatitis C virus, stable replicon genotype 1a, 72 h, read-out: EC50 1A RLUC. A digest of the protocol:
as §1

In assay [12] the test system is genotype 3a (S52) wild type transient HCV replicon in Huh-7-derived cells. As to the kind of experiment: Transient-transfected HCV replicon EC50, genotype 3a wild type. The format is cell-based, hepatitis C virus. The following applies: Hepatitis C virus; transient-transfected replicon genotype 3a wild type, 72 h; read-out: EC50 3A WT.

HCV NS3 protease domain genotype 1b, sequence (Q9WMX2 1027-1208 E1202G): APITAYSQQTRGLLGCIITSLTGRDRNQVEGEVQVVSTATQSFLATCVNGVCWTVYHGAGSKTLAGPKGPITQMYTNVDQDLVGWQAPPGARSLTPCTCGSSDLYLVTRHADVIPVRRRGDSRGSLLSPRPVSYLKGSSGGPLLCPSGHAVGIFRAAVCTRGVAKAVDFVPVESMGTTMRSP

As for `CCC[C@@H]1[C@@H]2CN(C(=O)[C@H](C(C)(C)C)NC(=O)O[C@@H]3C[C@H]3CCCCCc3nc4ccc(OC)cc4nc3O2)[C@@H]1C(=O)N[C@]1(C(=O)NS(=O)(=O)C2(C)CC2)C[C@H]1C(F)F` [Example 29, (1aR,5S,8S,9S,10R,22aR)-5-tert-butyl-N-[(1R,2R)-2-(difluoromethyl)-1-{[(1-methylcyclopropyl)sulfonyl]carbamoyl}cyclopropyl]-14-methoxy-3,6-dioxo-9-propyl-1,1a,3,4,5,6,9,10,18,19,20,21,22,22a-tetradecahydro-8H-7,10-methanocyclopropa[18,19][1,10,3,6]dioxadiazacyclononadecino[11,12-b]quinoxaline-8-carboxamide], the EC50 in assay [1] was found to be 3.1 nM; in assay [2] it was 8.9 nM; in assay [3] it was 11 nM; in [4] it was 48 nM; in assay [5], 11 nM; in [7], 7.2 nM. For the same compound, the EC50 in [8] stood at 4.8 nM; in [10], 137 nM; in assay [11], 10 nM. Also, the Ki in assay [6] was 0.12 nM; in assay [9], 0.06 nM.
With `CC[C@@H]1[C@@H]2CN(C(=O)[C@H](C(C)(C)C)NC(=O)O[C@@H]3CCC[C@H]3CCCCCc3nc4ccc(OC)cc4nc3O2)[C@@H]1C(=O)N[C@]1(C(=O)NS(=O)(=O)C2CC2)C[C@H]1C(F)F` [Example 5, (3aR,7S,10S,11S,12R,24aR)-7-tert-butyl-N-[(1R,2R)-1-[(cyclopropylsulfonyl)carbamoyl]-2-(difluoromethyl)cyclopropyl]-11-ethyl-16-methoxy-5,8-dioxo-1,2,3,3a,5,6,7,8,11,12,20,21,22,23,24,24a-hexadecahydro-10H-9,12-methanocyclopenta[18,19][1,10,3,6]dioxadiazacyclononadecino[11,12-b]quinoxaline-10-carboxamide], the EC50 in assay [1] stood at 3.2 nM; in [2], 7.4 nM; in assay [3] it was 11 nM; in assay [4] it was 91 nM; in assay [5], 17 nM; in assay [7], 6.9 nM. For the same compound, the EC50 was 3.7 nM in assay [8], 405 nM in assay [10] and 8.7 nM in assay [11]. In addition, the Ki in assay [6] was 0.17 nM; in [9], 0.04 nM.
As for `CCOc1ccc2nc3c(nc2c1)O[C@H]1CN(C(=O)[C@H](C(C)(C)C)NC(=O)O[C@@H]2C[C@H]2CCCCC3)[C@H](C(=O)N[C@]2(C(=O)NS(=O)(=O)C3(C)CC3)C[C@H]2C(F)F)[C@@H]1CC` [Example 69, (1aR,5S,8S,9S,10R,22aR)-5-tert-butyl-N-[(1R,2R)-2-(difluoromethyl)-1-{[(1-methylcyclopropyl)sulfonyl]carbamoyl}cyclopropyl]-14-ethoxy-9-ethyl-3,6-dioxo-1,1a,3,4,5,6,9,10,18,19,20,21,22,22a-tetradecahydro-8H-7,10-methanocyclopropa[18,19][1,10,3,6]dioxadiazacyclononadecino[11,12-b]quinoxaline-8-carboxamide], the EC50 in assay [1] was 3.9 nM; in [2], 4.9 nM; in assay [3], 11 nM; in [4] it was 28 nM; in [5], 15 nM; in [7], 5.8 nM. The half-maximal effective concentration (EC50) in [8] was 8.2 nM; in [10] it was 64 nM; in assay [12], 42 nM; in assay [11] it was 5.2 nM. The compound further had a Ki in [6] of 0.17 nM.
Regarding `COc1ccc2nc3c(nc2c1)O[C@H]1CN(C(=O)[C@H](C(C)(C)C)NC(=O)O[C@]2(C)C[C@H]2CCCCC3(F)F)[C@H](C(=O)N[C@]2(C(=O)NS(=O)(=O)C3(C)CC3)C[C@H]2C(F)F)[C@@H]1C` [Example 76, (1aR,5S,8S,9S,10R,22aR)-5-tert-butyl-N-[(1R,2R)-2-(difluoromethyl)-1-{[(1-methylcyclopropyl)sulfonyl]carbamoyl}cyclopropyl]-18,18-difluoro-14-methoxy-1a,9-dimethyl-3,6-dioxo-1,1a,3,4,5,6,9,10,18,19,20,21,22,22a-tetradecahydro-8H-7,10-methanocyclopropa[18,19][1,10,3,6]dioxadiazacyclononadecino[11,12-b]quinoxaline-8-carboxamide], the EC50 in assay [1] was 1 nM; in assay [2], 2.2 nM; in [3], 2.4 nM; in [4], 2.8 nM; in [5], 2.1 nM; in assay [7], 1.9 nM. Moreover, the EC50 in assay [8] amounted to 2 nM; in [10], 9 nM; in assay [12], 3.4 nM; in assay [11], 2.4 nM. This compound also came in with a Ki in assay [6] of 0.06 nM.
For `CC[C@@H]1[C@@H]2CN(C(=O)[C@H](C(C)(C)C)NC(=O)O[C@]3(C)C[C@H]3CCCCCc3nc4ccc(OC)cc4nc3O2)[C@@H]1C(=O)N[C@]1(C(=O)NS(=O)(=O)C2(C)CC2)C[C@H]1C(F)F` [Example 7, (1aR,5S,8S,9S,10R,22aR)-5-tert-butyl-N-[(1R,2R)-2-(difluoromethyl)-1-{[(1-methylcyclopropyl)sulfonyl]carbamoyl}cyclopropyl]-9-ethyl-14-methoxy-1a-methyl-3,6-dioxo-1,1a,3,4,5,6,9,10,18,19,20,21,22,22a-tetradecahydro-8H-7,10-methanocyclopropa[18,19][1,10,3,6] dioxadiazacyclononadecino[11,12-b]quinoxaline-8-carboxamide], the EC50 in assay [1] came out at 2.3 nM; in assay [2] it was 3.8 nM; in [3], 4.2 nM; in assay [4], 20 nM; in assay [5] it was 6.7 nM; in [7], 3.2 nM. For the same compound, the EC50 in assay [8] was 3.8 nM; in [10], 67 nM; in assay [12], 14 nM; in assay [11], 4.9 nM. This compound had a Ki in [6] of 0.06 nM.

What is called EC50 is the concentration that produces a half-maximal response. As a reminder, the Ki is a measure of affinity in units of concentration, obtained from inhibition or displacement. The low end stands for a stronger hold on the target, the high end for a looser hold on the target.
